Assay results: US20200061076A1, “METHODS OF TREATING LEUKODYSTROPHIES” (Ramot at Tel-Aviv University Ltd., priority 2017, published 2020)

Columns and labels:
[1] = system: Hedgehog signaling pathway; assay: Luciferase activity assay in Shh-LIGHT2 cells (Gli1-controlled Firefly / constitutive Renilla); type: cell-based; settings: for Firefly/Renilla luciferase expression (Hedgehog activation): absence of SAG, 24 hours (FIG. 11A); for SAG-induced HH activity (Firefly/Renilla luciferase): presence of SAG at 50 nM, 24 hours (FIG. 11B)
Experimental: Following lysis, luminescence was measured using the Dual Luciferase assay kit (Promega) followed by Firefly/Renilla luciferase ratio calculation for each treatment. Shown is average Firefly/Renilla luciferase activity ±SD of 3 independent experiments. *p<0.04. […] RNA was extracted from brains of P18 and P21 Mut and WT mice. cDNA was prepared by reverse transcription and subjected to qPCR using primers specific to Gli1 and GAPDH (SEQ ID NOs: 1-2 and 3-4, respectively). Relative quantity (RQ) was calculated by the ΔΔCt method. * p<0.02 [vs control (FIG. 11A) or vs SAG treated cells (FIG. 11B)].
Shh-LIGHT2 cells were seeded at a density of 10,000 cells per well in a 96-wells plate in growing medium. 24 hours post-plating the cells were incubated for additional 24 hours with the tested compounds in low serum media (0.5%) without G418 and Zeocin. Following lysis, Firefly and Renilla luminescence was measured using the Dual Luciferase assay kit (Promega) and a Veritas microplate luminometer (Turner Biosystems).
To test if p8C10 (H5), p8G7 (H9) and p9E6 (H15) compounds that were identified in the screen indeed affect Hedgehog signaling, SHH-lightII cells which stably express an inducible Firefly-Luciferase reporter gene under the control of Gli1 (a read-out of Hedgehog activation) and constitutive Renilla-Luciferase for normalization purposes (Taipale et al. 2000) were used. […] Therefore, p9E6 was identified as an agonist. SHH activation is required for the first steps of oligodendrocyte differentiation, while a subsequent decrease in Hedgehog activity is needed for complete differentiation and myelin production (Bouslama-Oueghlani et al. 2012) and re-myelination (Samanta et al. 2015).

Mut MEFs [2] = assay: Cell survival assay, Crystal violet staining, Mut MEFs; type: cell-based, mouse; settings: for Survival (%) ± SEM Mut MEFs: 24 hours, untreated cells set to 100%
Experimental: Cells were seeded on 96-wells plate at a density of 5000 cells per well. Astrocytes were seeded following coating with 0.001% PDL.

Mut MEFs [3] = assay: Survival under Tunicamycin-induced ER stress, Crystal Violet, MEFs; settings: Mut MEFs, 30 μM, 50 ng/ml Tunicamycin 22 hours (FIG. 20B)
Experimental: Mut MEFs were treated or not for 24 hours with the indicated concentrations of the indicated Sig-1R binders in the presence of 0.1 μg/ml Tunicamycin (Tun) during the last 22 hours. Following, the cells were washed, fixated and stained with Crystal Violet (CV) followed by measurement of absorbance at 570 nm. Shown is average % of CV staining relative to cells not treated with tunicamycin nor Sig-1R binder ±SEM of 3 independent experiments. *p<0.03.
Following, the cells were washed, fixated and stained with Crystal Violet and absorbance at 570 nm was measured. Data is presented relative to cells of the corresponding genotype not treated with p8G5 nor Tunicamycin. Shown is average % of CV staining ±SEM of 3 independent experiments.
Mut MEFs were treated or not for 24 hours with 10, 20 or 30 μM of the indicated Sig-1R binders in the presence of 50 ng/ml Tunicamycin (Tun) during the last 22 hours. Following, the cells were washed, fixated and stained with Crystal Violet (CV) followed by measurement of absorbance at 570 nm. Shown is % of CV staining relative to cells not treated with tunicamycin nor Sig-1R binder ±SEM of 3 independent experiments, *p<0.05.
Mut MEFs were incubated or not with the indicated concentrations of the indicated compounds for 2 hours followed by addition of 50 ng/ml Tunicamycin (Tun) for additional 22 hours, stained with Crystal Violet followed by measurement of absorbance at 570 nm. Shown is average normalized to Tun-treated cells without any compound ±SEM of 3 independent experiments. * not significant; ** p<0.02; *** all values p<0.04.

Mut MEFs [4] = assay: JC1 staining of intact and damaged mitochondria (mitochondrial membrane potential); type: cell-based, mouse; settings: Mut MEFs, 10 μM; for effect on mitochondrial health (JC1, intact and damaged mitochondria): 24 hours (FIG. 14C)
Experimental: Mut MEFs were treated or not for 6 hours with the indicated concentrations of p8G5 (blue), pre084 (purple), or NE-100 (yellow), washed and stained with Hoechst and JC1 for 30 minutes followed by image acquisition using In-Cell-Analyzer-2000. Shown is the % of red/green JC1 integrated intensity per cell relative to that in untreated WT cells of 2-4 independent experiments.
Following, the cells were washed, stained with Hoechst and JC-1 fluorescent dyes for 30 minutes, and subjected to image acquisition using In-Cell-Analyzer-2000. Shown is cellular content of damaged mitochondria (JC1 green channel, red bars), intact mitochondria (JC1 red channel, green bars) and damaged to intact mitochondria ratio (blue bars). Values of control (vehicle treated) cells was set to 100%.
Mut MEFs were treated with the indicated compounds at 10 μM for 24 hours followed by staining with fluorogenic dyes and image-based single-cell analysis. Shown is average effect on ROS level from at least 3-independent experiments ±SEM. […] Mut MEFs were incubated or not for 24 hours with 10 μM of the indicated compound, washed and stained with Crystal Violet. […] Mut MEFs were incubated or not for 24 hours with 10 μM of the indicated compound, washed and stained with JC1 and Hoechst followed by image-based single-cell analysis. Values of untreated cells were set as 100%. Shown is average of at least 3 independent experiments for each parameter compared to its matching control ±SEM. * p<0.05. Putative targets are indicated.
Mut MEFs were incubated or not for 24 hours with 10 μM of the indicated compounds, washed and stained with Hoechst and JC1 followed by image-based single-cell analysis. […] Mut MEFs were incubated or not with the indicated concentrations of the indicated compounds for 2 hours followed by addition of 50 ng/ml Tunicamycin (Tun) for additional 22 hours, stained with Crystal Violet followed by measurement of absorbance at 570 nm.
MEFs were seeded on 1% gelatin-coated 96-wells plate at a density of 5000 cells per well. 24 hours post-plating the cells were incubated with the tested compounds for additional 24 hours. Several DMSO-treated cells (control) were included in each plate at different locations. Following, the cells were stained by addition of fluorogenic dyes for further 30 minutes incubation at 37° C. […] CellROX was used together with Hoechst and CFSE; JC1 was used together with Hoechst. Cells were washed with Hank's balanced salt solution (HBSS) which was used for images acquisition using IN Cell Analyzer 2000 (GE Healthcare, Pitsburgh, Pa., USA). IN Cell Developer Toolbox 1.9.1 software (GE Healthcare) was used for analysis which included cells segmentation using Hoechst and/or CFSE signals. For analysis of JC1 staining, integrated intensity of green and red emissions were used for detection of damaged and intact mitochondria, respectively.

| SMILES | Survival (%) ± SEM Mut MEFs (Mut MEFs [2]; 10 μM) [%] | Survival (%) ± SEM Mut MEFs (Mut MEFs [2]; 20 μM) [%] | Survival (%) ± SEM Mut MEFs (Mut MEFs [2]; 30 μM) [%] | also measured |
| --- | --- | --- | --- | --- |
| C=CCn1c(-c2cc(OC)c(OC)c(OC)c2)nc2ccccc21 [Hit H5, 1-allyl-2-(3,4,5-trimethoxyphenyl)-1H-benzimidazole] | – | – | – | Firefly/Renilla luciferase expression (Hedgehog activation) [1]: not able to activate the pathway; SAG-induced HH activity (Firefly/Renilla luciferase) [1]: inhibited the SAG-induced HH activity |
| Cc1cc(C)cc(OCCCCCN2CCOCC2)c1 [Hit H8-1, 4-[5-(3,5-dimethylphenoxy)pentyl]morpholine] | 104 ± 2.7 | 103 ± 4.7 | 97 ± 3.9 | – |
| Cc1ccc(OCCCCCN2CCOCC2)cc1C [Hit H8-2, 4-[5-(3,4-dimethylphenoxy)pentyl]morpholine] | 92 ± 4.2 | 94 ± 8.8 | 95 ± 13.1 | cell survival following Tun-induced cell death (Mut MEFs [3]): most potent effect |
| Cc1cccc(OCCCCCCN2CCOCC2)c1 [Hit H8-3, 4-[6-(3-methylphenoxy)hexyl]morpholine] | 100 ± 7.2 | 96 ± 4.1 | 88 ± 4.5 | – |
| Cc1cccc(OCCCCN2CCOCC2)c1 [Hit H8-4, 4-[4-(3-methylphenoxy)butyl]morpholine] | 92 ± 8.5 | 95 ± 4.2 | 98 ± 5.4 | – |
| Cc1ccc(OCCCCN2CCOCC2)cc1C [Hit H8-5, 4-[4-(3,4-dimethylphenoxy)butyl]morpholine] | 92 ± 1.7 | 100 ± 4.4 | 98 ± 13.8 | cell survival following Tun-induced cell death (Mut MEFs [3]): most potent effect |
| COc1cccc(OCCCCCN2CCOCC2)c1 [Hit H8-6, 4-[5-(3-methoxyphenoxy)pentyl]morpholine] | 97 ± 5.1 | 92 ± 1.1 | 93 ± 5.2 | cell survival following Tun-induced cell death (Mut MEFs [3]): most potent effect |
| Clc1cccc(OCCCCCN2CCOCC2)c1 [Hit H8-7, 4-[5-(3-chlorophenoxy)pentyl]morpholine] | 98 ± 5.1 | 91 ± 4.7 | 88 ± 9.7 | mitochondrial health, damaged/intact organelle ratio (JC1) (Mut MEFs [4]; 24 hours (FIG. 20A)): at the top of the list; cell survival following Tun-induced cell death (Mut MEFs [3]): most potent effect |
| CN1CCN(CCCCCOc2ccccc2F)CC1 [Hit H8-8, 1-[5-(2-fluorophenoxy)pentyl]-4-methylpiperazine] | 101 ± 5.6 | 99 ± 11 | 90 ± 3.5 | – |
| O=C(Cc1ccccc1)N1CCN(c2ccccc2F)CC1 [Hit H9, 1-(2-fluorophenyl)-4-(phenylacetyl)piperazine] | – | – | – | Firefly/Renilla luciferase expression (Hedgehog activation) [1]: not able to activate the pathway; SAG-induced HH activity (Firefly/Renilla luciferase) [1]: inhibited the SAG-induced HH activity |
| C=CCn1c(C=Cc2ccccc2)nc2ccccc21 [Hit H15, 1-allyl-2-(2-phenylvinyl)-1H-benzimidazole] | – | – | – | Firefly/Renilla luciferase expression (Hedgehog activation) [1]: able to activate the Hedgehog signaling pathway; effect on mitochondrial health (JC1, intact and damaged mitochondria) (Mut MEFs [4]): significant beneficial effect on mitochondrial health |
| COc1ccc(OC)c(N=Nc2nc3ccccc3n2C)c1 [Hit H16, 2-[(2,5-dimethoxyphenyl)diazenyl]-1-methyl-1H-benzimidazole] | – | – | – | cell viability / toxicity (crystal violet) (Mut MEFs [2]; Mut MEFs, 10 μM, 24 hours (FIG. 14B)): significant decrease in cell viability |
| Cc1cc(-c2ccccc2)nc2cc(C(=O)N3C(C)CCCC3C)nn12 (centres unmarked) [Hit H17, 2-[(2,6-dimethyl-1-piperidinyl)carbonyl]-7-methyl-5-phenylpyrazolo[1,5-a]pyrimidine] | – | – | – | effect on mitochondrial health (JC1, intact and damaged mitochondria) (Mut MEFs [4]): significant beneficial effect on mitochondrial health |
| CNC1CCC(N(Cc2cccc(-c3ccncc3)c2)C(=O)c2sc3ccccc3c2Cl)CC1 (centres unmarked) [SAG, reference compound] | – | – | – | Survival (%) ± SEM Mut MEFs (Mut MEFs [2]; 0.01 μM): 98 ± 2.1%; Survival (%) ± SEM Mut MEFs (Mut MEFs [2]; 0.05 μM): 92 ± 3.2%; Survival (%) ± SEM Mut MEFs (Mut MEFs [2]; 0.1 μM): 95 ± 2.1%; Survival (%) ± SEM Mut MEFs (Mut MEFs [2]; 1 μM): 68 ± 2.7% |
